Experimental data published in paper PMC8968665, “Verteporfin is a substrate-selective γ-secretase inhibitor that binds the amyloid precursor protein transmembrane domain” (The Journal of Biological Chemistry, 2022).
Several values for one entry are separate records, joined by “and”; a condition that tells them apart may be missing. Identical values can stand only once. Entries after “also recorded” stand apart in the source; their conditions may differ. Like-named read-outs stand apart in the source and are kept apart here.

Legend:
[1] = biological target: T1, C99 domain of the human amyloid precursor protein (Homo sapiens, UniProt P05067); experiment: TROSY NMR titration of C99 by verteporfin, fit to 1:1 binding model
T1 construct: the transmembrane 99 residue C-terminal (C99) domain; His tag (either the C-terminal hexa-His that is kept, or the N-terminal His of C99-NT2 removed by thrombin); made in house; host or cells: E. coli BL21DE3
T1 sequence (P05067 672-770 limits assumed): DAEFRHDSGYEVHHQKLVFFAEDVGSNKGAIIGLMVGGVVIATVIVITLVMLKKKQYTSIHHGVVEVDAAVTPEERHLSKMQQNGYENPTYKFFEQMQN
Description: The preparation of NMR screening samples consisted of final concentrations of 50 μM C99, 2.5% w/v LMPG, […] buffer imidazole, 5% v/v D2O, 0.5 mM EDTA, pH 6.5. To ensure that these final conditions were maintained, the individual components of the screening samples were added from stocks in a specific order. For example, to make 10 ml of screening sample in imidazole NMR buffer, the following was added: (1) 10 by 250 μl frozen stocks of 200 μM protein were thawed on ice and transferred to a 15 ml conical vial; (2) 1.25 ml of 20% w/v LMPG stock (dissolved in H2O) was added to the conical vial, which was mixed by vortexing; (3) 1 ml of 10× concentrated imidazole NMR buffer was added to the conical vial and mixed by vortexing; (4) the sample was then diluted to 10 ml by adding 4.75 ml of ddH2O and 0.5 ml of D2O and allowed to reach equilibrium for at least 60 min. This final pool contained 50 μM C99, 25 mM imidazole, 100 mM NaCl, 2.5% LMPG, 5% v/v D2O, 0.5 mM EDTA, pH 6.5. At that point, the samples (199 μl for each well) were distributed into 96-well plates containing predispensed compounds, thoroughly mixed by pipette, and the complete 200 μl mixtures were transferred to 3 mm x 4 inch NMR tubes. At this point, each 3 mm NMR tube contained a 200 μl sample of 50 μM C99, 50 μM Compound, 25 mM imidazole, 100 mM NaCl, 2.5% w/v LMPG, 5% v/v D2O, 0.5% v/v DMSO, 0.5 mM EDTA, pH 6.5. Loaded NMR tubes were cleaned with 100% Ethanol on a kimwipe, securely capped, and transferred to an NMR tube rack compatible with a Bruker SampleJet system.
A Bruker Avance III 600 MHz NMR spectrometer equipped with a cryoprobe (CPTCI) and automated sample changer (SampleJet) was used to collect NMR spectra. Sample details are described above. For high-throughput screening data collection, the ^15N-^1H BEST-TROSY (b_trosy3gpph.2) experiment with 64 scans for each of 96 increments and a relaxation delay of 200 ms was run at 318 K for a total data acquisition time of 35 min per sample. To achieve enhanced signal-to-noise ratio, follow-up titrations and control experiments were conducted using the BEST-TROSY pulse program with 200 scans per 96 increments at 318 K, for a total data acquisition time of 110 min per sample. Data were processed using Bruker Topspin 3.6 using a Gaussian window function with a line broadening of -10 and a Gaussian max of 0.1 in both dimensions. NMR data were then further processed and analyzed using NMR-FAM SPARKY, plotted using GraphPad Prism 9, and prepared for publication figures using Affinity Designer.
2D ^15 N-^1H HSQC NMR data used to calculate dissociations constant (KD) values by first normalizing 2D data using the established formula ([78]) (Equation 1):(1) δ(1H,15N)=√(1/2[δ2H+.14∗δ2N]) Where δ(1H,15N) is the square root of linear chemical shifts in each respective dimension, δH and δN with the Nitrogen normalization factor of 0.14.
After 2D normalization, the data were fit to a hyperbolic binding isotherm using one of the following formulas depending of the data:(2) Y=Bmax∗X/(KD+X)+NS∗X
For this equation, Y is the total binding, Bmax is the maximum binding in the same units as Y, X is the added ligand in molar units, KD is the equilibrium dissociation constant in the same units as X, and NS is a linear term to account for either vehicle or nonspecific verteporfin effects.(3) Y=Bmax∗X/(KD+X)
(§1) For this equation, Y is the total binding, Bmax is the maximum binding in the same units as Y, X is the added ligand in molar units, KD is the equilibrium dissociation constant in the same units as X. 1D NMR-binding curves were generated by directly inputting 1D chemical shift perturbations directly into the proper version of Equation 2. Peak height data, such as that quantified in Figures 4 and S4, were first generated using the peak-picking function in NMRFAM Sparky, and peak heights as a function of ligand concentration were used to generate a KD by addition into Equation 2.

[2] = 1D 1H NMR titration of empty LMPG micelles by verteporfin; conditions: empty 2.5% LMPG micelles, acyl chain methylene peak shifts, n = 1; read-out: KD, one verteporfin binding to one detergent micelle model
Description: as §1

C99 = test system: T2, C99; experiment: Native ion mobility–mass spectrometry of C99–verteporfin mixtures; set-up: species or system human
T2 construct: the transmembrane 99 residue C-terminal (C99) domain; His tag (either the C-terminal hexa-His that is kept, or the N-terminal His of C99-NT2 removed by thrombin); made in house; host or cells: E. coli BL21DE3
Description: IM-MS data were collected using a Synapt G2 HDMS IM-Q-ToF mass spectrometer (Waters), with a direct infusion nESI source set to positive ion mode. The instrument settings were tuned to generate intact C99–verteporfin complex ions while completely dissociating them from detergent LMPG micelles, including appropriately tuned settings for the sampling cone 80 V, trap cell accelerating potential 80 V, and the transfer cell accelerating potential 70 V. The trapping cell wave velocity and height were 116 m/s and 0.1 V, respectively. The IMS wave velocity and height were 250 m/s and 15 V, respectively. The transfer cell wave velocity and height were 300 m/s and 10 V. Prior to analysis, C99 in LMPG micelles at a protein concentration of 20 μM C99 and 100X CMC LMPG or DDMB samples were prepared by incubating 20 μM C99 with 100X CMC LMPG for 30 min, then titrating in DMSO or Verteporfin and incubating in the dark overnight. Verteporfin-binding buffer conditions were 200 mM Ammonium Acetate at pH 4.5.

[3] = biological target: T3, γ-secretase cleavage of C100-Flag (C99) (Homo sapiens, UniProt P05067); experiment: γ-Secretase IC50 measurement, Aβ40 sandwich ELISA; assay type: biochemical; conditions: 1 nM purified γ-secretase, 2 µM C100-Flag, 2 h, 37 °C, n=1, error of the fit; read-out: IC50, inhibition of Aβ40 production
T3 construct: C100 is C99 with an added N-terminal Met residue; made in house
T3 sequence (P05067 672-770 limits assumed): as above
Description: Purified γ-secretase was diluted in standard assay buffer to specified concentrations and incubated at 37 °C for 30 min, followed by the addition of stock solution of verteporfin in DMSO to achieve various final verteporfin concentrations and 2% final DMSO concentration. Purified C99 FLAG was then added to start the proteolytic reactions, which were incubated for 2 h at 37 °C. The concentrations of Aβ40 produced during the proteolysis of C100 FLAG by γ-secretase were determined using a specific sandwich ELISA (Invitrogen). Aβ40 concentrations were plotted as a function of verteporfin concentration, and the resultant sigmoidal curves were fitted to Equation 5 to determine IC50 values ([80], [83]).(5) Y=Min+(Max−Min)/1+(X/IC50)^HillCoefficient

verteporfin gave a Kd ([1]; C99 in model membranes, read-out: KD of 1:1 complex) of roughly 17 µM, a Kd ([1]; D6PC/DMPC (q = 0.33) bicelles, n = 1, error of the fit, Fig. 3C, read-out: KD from C99 peak E766) of 17 ± 4 µM and a Kd ([1]; D6PC/DMPC (q = 0.33) bicelles, n = 1, error of the fit, Fig. 3C, read-out: KD from C99 peak T761) of 16 ± 4 µM. For the same substance, the Kd ([1]; LMPG micelles, 50 μM C99, pH 6.5, 318 K, 1:1 binding model, read-out: average dissociation constant (KD) across multiple residues in and around the TM domain) was 17 ± 11 µM, the Kd ([1]; depending on the membrane mimetic used (LMPG, DDMB micelles, DHPC-DMPC bicelles), read-out: KD range across membrane mimetics) was 15 to 47 µM and 10 to 50 µM and the Kd ([1]; nonionic DDMB micelles, n=1, error of the fit, Fig. S2C, read-out: KD from fitting of two different peaks) was 43 µM and 47 µM. The Kd ([1]; untagged C99 in DDMB micelles, Fig. S2 title, read-out: KD) was 45 ± 22 µM, the Kd [2] was 53 ± 21 µM and the “change in C99 oligomeric state (IM-MS)” value (C99; LMPG and DDMB micelles, 0–50 μM verteporfin, low detergent conditions, n = 3) was “only a marginal increase in the population of dimeric C99; also recorded: does not undergo any significant change in oligomeric state”. The “covalent modification of C99 (mass by IM-MS)” value (C99; samples kept in the dark) was “no covalent modification” and the IC50 [3] was 15 ± 1 µM.
